# Experimental data from patent US20240383874A1, “BENZENE RING DERIVATIVE, AND COMPOSITION AND PHARMACEUTICAL USE THEREOF” (Xizang Haisco Pharmaceutical Co., Ltd., priority 2020, published 2024).
# Molecular target: T1, AR splice variant 7 (AR-V7) (Homo sapiens, UniProt P10275)
# T1 construct: host or cells: 22RV1 prostate cancer cells
# T1 sequence (P10275 1-644 isoform P10275-3): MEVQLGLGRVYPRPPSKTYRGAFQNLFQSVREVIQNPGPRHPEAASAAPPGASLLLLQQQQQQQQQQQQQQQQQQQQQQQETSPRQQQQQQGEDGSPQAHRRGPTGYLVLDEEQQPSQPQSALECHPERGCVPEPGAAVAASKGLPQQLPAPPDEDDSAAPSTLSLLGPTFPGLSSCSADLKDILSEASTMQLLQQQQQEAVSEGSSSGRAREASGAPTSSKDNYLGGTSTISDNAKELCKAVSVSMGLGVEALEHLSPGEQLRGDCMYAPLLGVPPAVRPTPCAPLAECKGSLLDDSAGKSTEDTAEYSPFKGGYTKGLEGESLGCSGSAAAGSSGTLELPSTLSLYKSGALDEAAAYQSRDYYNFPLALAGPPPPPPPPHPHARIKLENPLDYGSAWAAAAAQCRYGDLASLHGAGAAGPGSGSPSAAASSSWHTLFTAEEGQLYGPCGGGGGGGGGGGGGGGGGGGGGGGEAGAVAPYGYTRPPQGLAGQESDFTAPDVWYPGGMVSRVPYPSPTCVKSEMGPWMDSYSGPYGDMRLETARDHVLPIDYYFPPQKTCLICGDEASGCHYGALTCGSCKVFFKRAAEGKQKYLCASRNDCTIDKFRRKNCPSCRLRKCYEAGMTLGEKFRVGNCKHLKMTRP
# Experiment: Degradation experiment on AR splice variant 7 (AR-V7) in 22RV1 cells
# Format: cell-based
# Details: 24 h, degradation rate 50% relative to vehicle control
# Procedure: Prostate cancer cells 22RV1 were purchased from ATCC, the cell medium was 1640+10% FBS, and the cells were cultured in an incubator at 37° C. under 5% CO2. On day 1, the cells in an exponential phase were collected. With a 1% css-FBS phenol red-free medium, the cell suspension was adjusted to a corresponding concentration and plated into a 6-well plate at 1 mL/well and 300000 cells/well. The next day, a 1% css-FBS phenol-free medium containing the compound to be tested was added, a 1% css-FBS phenol-free medium containing 0.2% DMSO was added to one well as DMSO vehicle control, and the 6-well plate was cultured in an incubator at 37° C. under 5% CO2. After 24 h, the cells were digested with pancreatin and collected into a 1.5 mL centrifuge tube. […] The supernatant protein samples were collected, and protein quantification was performed by a BCA method. AR-V7 was detected using fully automatic protein expression quantitative analysis, which involved diluting the protein to be tested to 2 mg/mL. […] The prepared reagents were successively added to an assay plate according to instructions of the kit and detected on an instrument. Western blot band processing was performed using “Compass for SW”, a fully automatic protein expression quantitative analysis software, in which western blot bands were automatically simulated based on signal values. […]
structure (smiles),measurement,value
"COc1c(Cl)cc(C(C)(C)c2ccc(OCc3ccnc(N4CCC(CN5CCC(C6CCN(c7ccc(C8CCC(=O)NC8=O)cc7)CC6)CC5)CC4)n3)cc2)cc1C#N (stereo not shown) [Compound 119, 3-chloro-5-(2-(4-((2-(4-((1′-(4-(2,6-dioxopiperidin-3-yl)phenyl)-[4,4′-bipiperidin]-1-yl)methyl)piperidin-1-yl)pyrimidin-4-yl)methoxy)phenyl)propan-2-yl)-2-methoxybenzonitrile]",DC50,3.71 µM
